Converted amounts (≈) assume the structure as drawn.
Tests used:
Assay in all cases: CLSI broth dilution MIC determination
Type in all cases: cell-based
[1] = test system: E. faecalis Vancomycin-resistant; details: E. faecalis Vancomycin-resistant; Gram-positive
[2] = test system: P. aeruginosa HPA101-1477; details: Gram-negative
[3] = test system: K. pneumoniae ATCC 10031; details: K. pneumoniae ATCC 10031; Gram-negative
[4] = test system: S. pyogenes ATCC 19615; details: S. pyogenes ATCC 19615; Gram-positive
[5] = test system: H. influenzae Erythro >4, Azithro 1; details: H. influenzae Erythro >4, Azithro 1; Gram-negative
Excerpt: MIC data was collected for the novel macrolides that this platform has produced against over 21 unique strains of B. subtilis, E. coli, S. aureus, S. pneumoniae, and H. influenzae, including several multidrug-resistant strains, with a special focus on macrolide resistant mechanisms (vide supra). […] CLSI standard procedures for broth dilution MIC determination were used. […] These genotypes can be constitutive or inducible.

[6] = test system: A. baumannii ATCC 19606; details: A. baumannii ATCC 19606; Gram-negative
[7] = test system: E. faecalis ATCC 29212; details: E. faecalis ATCC 29212; Gram-positive
[8] = test system: A. baumannii IMP-4; details: Gram-negative
[9] = test system: K. pneumoniae KPC-2; details: Gram-negative
[10] = test system: A. baumannii imipenem-resistant; details: Gram-negative
[11] = test system: A. baumannii chromosomal class C; details: Gram-negative
[12] = test system: E. coli NDM-1; details: Gram-negative
Excerpt: (§1) MIC data was collected for the novel macrolides that this platform has produced against over 21 unique strains of B. subtilis, E. coli, S. aureus, S. pneumoniae, and H. influenzae, including several multidrug-resistant strains, with a special focus on macrolide resistant mechanisms (vide supra). Azithromycin (Azithro) and Solithromycin (Solithro) were included as a control macrolides in many cases. CLSI standard procedures for broth dilution MIC determination were used. […] These genotypes can be constitutive or inducible.

[13] = test system: H. influenzae ATCC49247; details: Gram-negative
Excerpt: as §1

[14] = test system: S. aureus ATCC 29213; details: S. aureus ATCC 29213; Gram-positive
Excerpt: as §1

[15] = test system: S. aureus erm A genotype; details: S. aureus erm A genotype; Gram-positive
Excerpt: as §1

[16] = test system: S. aureus USA600, GISA; details: S. aureus USA600, GISA; Gram-positive
Excerpt: as §1

[17] = test system: E. coli TEM-1; details: E. coli TEM-1; Gram-negative
Excerpt: as §1

[18] = test system: S. pneumoniae mef A genotype (second strain so labelled); details: Gram-positive
Excerpt: as §1

[19] = test system: E. coli ATCC 25922; details: E. coli ATCC 25922; Gram-negative
Excerpt: as §1

[20] = test system: S. aureus MRSA: USA300; details: S. aureus MRSA: USA300; Gram-positive
Excerpt: as §1

[21] = test system: E. coli CTX-M-14; details: Gram-negative
Excerpt: as §1

[22] = test system: S. aureus MRSA: USA100; details: S. aureus MRSA: USA100; Gram-positive
Excerpt: as §1

[23] = test system: S. pneumoniae ATCC 49619; details: S. pneumoniae ATCC 49619; Gram-positive
Excerpt: as §1

[24] = test system: K. pneumoniae TEM-10; details: Gram-negative
Excerpt: as §1

[25] = test system: P. aeruginosa ATCC 27853; details: P. aeruginosa ATCC 27853; Gram-negative
[26] = test system: S. pyogenes Macrolide-resistant; details: S. pyogenes Macrolide-resistant; Gram-positive
[27] = test system: K. pneumoniae SHV-12; details: Gram-negative

Compound	MIC [1] [µg/mL]	MIC [2] [µg/mL]	MIC [3] [µg/mL]	MIC [4] [µg/mL]	MIC [5] [µg/mL]	MIC [6] [µg/mL]	MIC [7] [µg/mL]	MIC [8] [µg/mL]	MIC [9] [µg/mL]	MIC [10] [µg/mL]	MIC [11] [µg/mL]	MIC [12] [µg/mL]	MIC [13] [µg/mL]	MIC [14] [µg/mL]	MIC [15] [µg/mL]	MIC [16] [µg/mL]	MIC [17] [µg/mL]	MIC [18] [µg/mL]	MIC [19] [µg/mL]	MIC [20] [µg/mL]	other results
CC[C@H]1OC(=O)[C@H](C)C(=O)[C@H](C)[C@@H](O[C@@H]2OC(C)CC(N(C)C)C2O)[C@](C)(OC)C[C@@H](C)C(=O)[C@H](C)[C@H]2N(C/C=C/Cn3cnc(-c4ccccn4)c3)C(=O)O[C@]12C (stereo partly drawn) [FSM-100421]	32 (≈ 39.5 µM)	> 32	4 (≈ 4.94 µM)	< 0.0312	1 (≈ 1.23 µM)	16 (≈ 19.8 µM)	< 0.0312	> 32	> 32	16 (≈ 19.8 µM)	32 (≈ 39.5 µM)	> 32	2 (≈ 2.47 µM)	0.0625 (≈ 0.0772 µM)	> 32	> 32	32 (≈ 39.5 µM)	0.0625 (≈ 0.0772 µM)	32 (≈ 39.5 µM)	2 (≈ 2.47 µM)	MIC [21]: > 32 µg/mL; MIC [22]: > 32 µg/mL; MIC [23]: < 0.0312 µg/mL; MIC [24]: 32 µg/mL (≈ 39.5 µM); MIC [25]: > 32 µg/mL; MIC [26]: < 0.0312 µg/mL; MIC [27]: > 32 µg/mL
CC[C@H]1OC(=O)[C@@](C)(F)C(=O)[C@H](C)[C@@H](O[C@@H]2OC(C)CC(N(C)C)C2O)[C@](C)(OC)C[C@@H](C)C(=O)[C@H](C)[C@H]2N(C/C=C/Cn3cc(-c4cccc(N)c4)nn3)C(=O)O[C@]12C (stereo partly drawn) [FSM-11563]	4 (≈ 4.74 µM)	> 32	4 (≈ 4.74 µM)	≤ 0.0312	4 (≈ 4.74 µM)	4 (≈ 4.74 µM)	≤ 0.0312	> 32	> 32	4 (≈ 4.74 µM)	2 (≈ 2.37 µM)	> 32	2 (≈ 2.37 µM)	0.0625 (≈ 0.0741 µM)	> 32	> 32	16 (≈ 19 µM)	≤ 0.0312	16 (≈ 19 µM)	0.125 (≈ 0.148 µM)	MIC [21]: > 32 µg/mL; MIC [22]: > 32 µg/mL; MIC [23]: ≤ 0.0312 µg/mL; MIC [24]: 32 µg/mL (≈ 38 µM); MIC [25]: 32 µg/mL (≈ 38 µM); MIC [26]: ≤ 0.0312 µg/mL; MIC [27]: > 32 µg/mL
